Source: patent US20130253048A1, “Pharmaceutical Composition for Promoting Osteogenesis Containing Axial-equatorial Aryl-oriented Furofuran-type Lignan, and Pharmaceutical Preparation, Functional Food Product, and Health Food Product Comprising Composition” (ERINA CO., INC., priority 2010, published 2013)
Marks after values point to notes of the source that are not given here.

Experiments:
TRACP5b = test: Serum TRACP5b of OVX mice (bone metabolism marker); assay type: in vivo, mouse
Protocol: All obtained blood from the heart under diethyl ether anesthesia at dissection was stored at 4 degree centigrade for 24 hours. Then, the blood was centrifuged at 3,000 rpm (4,000×g) for 15 minutes to separate the sera.
According to the protocol of Mouse TRAP™ Assay (Immuno-diagnostic Systems Ltd, the United of Kingdom), TRACP5b in the obtained sera was determined.

[1] = test system: osteopenia mouse caused by sRANKL administration; test: Osteopenia mouse caused by sRANKL administration, femur pQCT; assay type: in vivo; conditions: for Bone density of the cancellous bone, relative value / Bone density of the cortical bone, relative value / Bone density of whole bone, relative value: RANKL group = 100.0; for Bone density of the cancellous bone / Bone density of the cortical bone / Bone density of whole bone: day 4 to 13; for Bone density of whole bone: right femur, pQCT
Protocol: C57BL/6NCrlCrlj mice (6-week-age, female) were purchased from Oriental Yeast Co., Ltd. and kept to be acclimatized under the conditions of 12 hour light/dark cycle, 23±3 degree centigrade, and humidity 55±5% for 7 days. Two mice were in a cage, and the animal bedding was changed twice a week, and all fresh animal bedding was used at all times. As the feed, CRF-1 (Oriental Yeast Co., Ltd.), and deionized water as the drinking water were freely taken.
After the acclimatization, these mice were randomly divided into 4 groups (8 mice per group), sRANKL administration group and fargesin administration groups. Fargesin administration groups had 0.2 mg/kg/day administration group (it is referred to as “Far 0.2”, hereinbelow), 2 mg/kg/day administration group (it is referred to as “Far 2” herein below), and 20 mg/kg/day administration group (it is referred to as “Far 20” herein below). sRANKL (1 mg/kg/day, i.p) was administered to all mice on the first day and the second day from test start to cause osteopenia experimentally.
From the 4th day to 13th day after the test start, distilled water or the test compounds shown in the following Table 10 were daily administered to the mice in each group.
After the administration period was finished and the experiment was completed, the femurs were removed in the same way as employed in Example 6 to be excised to evaluate the bone density. Body weight of the test animals and feed intake by the test animals were measured twice a week during the administration period.
The experiments were performed as the same as done in Example 6, right femur chosen from the obtained femurs was used for measurement of the bone density.
The whole bone density, the cancellous bone density, the cortical bone density, the boundary length of the cortical bone adventitia, the length of the cortical bone endosteum, and the bone strength were measured at the site of −0.6 mm from the growth plate of the bone (see FIG. 3A).

MC3T3-E1 cells = test: Calcification of the osteoblast (ALP activity, alizarin red) in MC3T3-E1; assay type: cell-based, mouse
Protocol: MC3T3-E1 cells as the same as those used in Example 4 were used. In addition, 50 μg/ml of L-ascorbic acid and 10 mM β-Glycerophosphate (both from Sigma-Aldrich Japan Co. LLC.) were added to the basal medium employed in the Example 3 was used. Fargesin prepared in the Example 1 was added to the medium the concentration at 2 to 80 μM.
MC3T3-E1 was inoculated in each well of the 96 well plates at 4,000 cells/well, and then the plate was pre-cultured by using only basal mediums under the condition of 5% CO2 and 37 degree centigrade for 2 days. After that, the medium was exchanged to the medium containing 50 μg/ml of L-ascorbic acid, 10 mM β-Glycerophosphate, and fargesin, and it was incubated under the condition of 5% CO2 and 37 degree centigrade for 5 days. After the termination of the incubation, the measurement of ALP activity and the differentiated cells were observed as the same as those in Example 3.
Mineral deposition was stained by using 1% alizarin red observed as the bone calcification (Wako Pure Chemical Industries, Ltd.) according to the conventional method, and then it was observed as the bone calcification.

[2] = sRANKL-treated mice, Far 0.2: 0.2 mg/kg/day p.o.
[3] = sRANKL-treated mice, Far 2: 2 mg/kg/day p.o.
[4] = sRANKL-treated mice, Far 20: 20 mg/kg/day p.o.

Question: For COc1ccc([C@@H]2OC[C@H]3[C@@H]2CO[C@@H]3c2ccc3c(c2)OCO3)cc1OC [fargesin, Fargesin], which “level of TRACP5b in the sera” value (TRACP5b; 40 mg administration group p.o.) is on record?
Answer: The value was “significantly decreased”.

Question: What about the “level of TRACP5b in the sera” value (TRACP5b; 2, 20, 40 mg/kg/day p.o.) of the same molecule?
Answer: Its value is “dose-dependently decreased”.

Question: What about the “Bone density of the cancellous bone, relative value” ([1]; Far 0.2: 0.2 mg/kg/day p.o.) of the same molecule?
Answer: Its value is “(100.7)”.

Question: What about the “Bone density of the cortical bone, relative value” ([1]; Far 0.2: 0.2 mg/kg/day p.o.) of the same molecule?
Answer: Its value is “(98.7)”.

Question: What about the “Bone density of whole bone, relative value” ([1]; Far 0.2: 0.2 mg/kg/day p.o.) of the same molecule?
Answer: Its value is 99.5.

Question: What about the “Bone density of the cancellous bone, relative value” ([1]; Far 2: 2 mg/kg/day p.o.) of the same molecule?
Answer: Its value is “(104.0)”.

Question: What about the “Bone density of the cortical bone, relative value” ([1]; Far 2: 2 mg/kg/day p.o.) of the same molecule?
Answer: The value was “(98.9)”.

Question: What about the “Bone density of whole bone, relative value” ([1]; Far 2: 2 mg/kg/day p.o.) of the same molecule?
Answer: Its value is 99.5.

Question: What about the “Bone density of the cancellous bone, relative value” ([1]; Far 20: 20 mg/kg/day p.o.) of the same molecule?
Answer: Its value is “(129.4)*”.

Question: What about the “Bone density of the cortical bone, relative value” ([1]; Far 20: 20 mg/kg/day p.o.) of the same molecule?
Answer: Its value is “(98.6)”.

Question: What about the “Bone density of whole bone, relative value” ([1]; Far 20: 20 mg/kg/day p.o.) of the same molecule?
Answer: Its value is 110.

Question: What about the “bone strength, Polar coordinates strength (SSI)” value ([1]; sRANKL-treated mice, 0.2 to 20 mg/kg/day p.o.) of the same molecule?
Answer: The value was “trend that the bone strength was improved”.

Question: What about the “Bone density of the cancellous bone” value [1, 2] of the same molecule?
Answer: The value was 261.64 ± 17.92 mg/mL.

Question: And the “Bone density of the cortical bone” value [1, 2]?
Answer: The value was 797.40 ± 6.12 mg/mL.

Question: And the “Bone density of whole bone” value [1, 2]?
Answer: The value was 484.33 ± 11.09 mg/mL.

Question: What about the “Bone density of the cancellous bone” value [1, 3] of the same molecule?
Answer: Its value is 270.30 ± 20.64 mg/mL.

Question: What about the “Bone density of the cortical bone” value [1, 3] of the same molecule?
Answer: The value was 798.60 ± 4.56 mg/mL.

Question: And the “Bone density of whole bone” value [1, 3]?
Answer: Its value is 487.30 ± 16.36 mg/mL.

Question: And the “Bone density of the cancellous bone” value [1, 4]?
Answer: Its value is 336.25 ± 13.50 mg/mL.

Question: What about the “Bone density of the cortical bone” value [1, 4] of the same molecule?
Answer: Its value is 796.33 ± 3.89 mg/mL.

Question: And the “Bone density of whole bone” value [1, 4]?
Answer: The value was 532.69 ± 8.06 mg/mL.

Question: What about the “Mineral deposition (calcification), alizarin red staining” value (MC3T3-E1 cells; 60 to 80 μM, MC3T3-E1) of the same molecule?
Answer: Its value is “increased mineral deposition side”.

Question: And the activity at 2 µM (MC3T3-E1 cells; Mus musculus, 120 h, 2 μM, MC3T3-E1 with L-ascorbic acid and β-Glycerophosphate, 5 days, negative control = 100)?
Answer: Its activity at 2 µM is 93.3 ± 2.6%.

Question: What about the activity at 6 µM (MC3T3-E1 cells; Mus musculus, 120 h, 6 μM, MC3T3-E1 with L-ascorbic acid and β-Glycerophosphate, 5 days, negative control = 100) of the same molecule?
Answer: Its activity at 6 µM is 92.8 ± 1.6%.

Question: And the activity at 20 µM (MC3T3-E1 cells; Mus musculus, 120 h, 20 μM, MC3T3-E1 with L-ascorbic acid and β-Glycerophosphate, 5 days, negative control = 100)?
Answer: The activity at 20 µM was 107 ± 3.8%.

Question: What about the activity at 60 µM (MC3T3-E1 cells; Mus musculus, 120 h, 60 μM, MC3T3-E1 with L-ascorbic acid and β-Glycerophosphate, 5 days, negative control = 100) of the same molecule?
Answer: Its activity at 60 µM is 173 ± 13.7%.

Question: What about the activity at 80 µM (MC3T3-E1 cells; Mus musculus, 120 h, 80 μM, MC3T3-E1 with L-ascorbic acid and β-Glycerophosphate, 5 days, negative control = 100) of the same molecule?
Answer: The activity at 80 µM was 172 ± 12.2%.
